# Laboratory results as given in ChEMBL document CHEMBL3991601, “The target landscape of clinical kinase drugs” (Science, 2017).
# Activity calls are given as the source filed them. For most assays here, no stated cut-off is given here; in the data, actives have a measured Kd and inactives only a lower limit.
# Legend:
# [1] = biological target: Protein kinase C alpha type (Homo sapiens, UniProt P17252)
# [2] = biological target: Ribosomal protein S6 kinase alpha-4 (Homo sapiens, UniProt O75676)
# Sequence of Ribosomal protein S6 kinase alpha-4 (O75676 whole entry): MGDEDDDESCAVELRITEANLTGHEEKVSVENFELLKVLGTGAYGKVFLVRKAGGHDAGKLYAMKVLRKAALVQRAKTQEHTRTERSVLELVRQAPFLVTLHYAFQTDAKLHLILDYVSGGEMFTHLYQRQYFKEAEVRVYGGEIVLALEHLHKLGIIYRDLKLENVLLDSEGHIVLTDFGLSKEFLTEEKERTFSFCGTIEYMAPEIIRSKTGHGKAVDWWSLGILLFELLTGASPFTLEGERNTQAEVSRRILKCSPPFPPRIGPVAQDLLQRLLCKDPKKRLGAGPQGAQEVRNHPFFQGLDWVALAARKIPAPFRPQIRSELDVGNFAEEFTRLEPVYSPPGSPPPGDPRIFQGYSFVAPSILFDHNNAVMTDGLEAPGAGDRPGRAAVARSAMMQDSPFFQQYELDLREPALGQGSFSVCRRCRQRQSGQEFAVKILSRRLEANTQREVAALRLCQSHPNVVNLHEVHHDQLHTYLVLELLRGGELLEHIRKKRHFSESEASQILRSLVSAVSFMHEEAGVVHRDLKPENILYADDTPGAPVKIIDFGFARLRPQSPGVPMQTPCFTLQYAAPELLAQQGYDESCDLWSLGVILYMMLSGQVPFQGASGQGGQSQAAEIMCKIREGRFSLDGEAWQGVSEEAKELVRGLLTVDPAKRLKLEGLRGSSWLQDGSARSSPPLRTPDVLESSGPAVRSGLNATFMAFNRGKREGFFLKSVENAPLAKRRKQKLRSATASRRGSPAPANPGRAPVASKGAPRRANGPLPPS
# [3] = biological target: T1, Receptor-type tyrosine-protein kinase FLT3 (Homo sapiens, UniProt P36888)
# T1 sequence (P36888 whole entry): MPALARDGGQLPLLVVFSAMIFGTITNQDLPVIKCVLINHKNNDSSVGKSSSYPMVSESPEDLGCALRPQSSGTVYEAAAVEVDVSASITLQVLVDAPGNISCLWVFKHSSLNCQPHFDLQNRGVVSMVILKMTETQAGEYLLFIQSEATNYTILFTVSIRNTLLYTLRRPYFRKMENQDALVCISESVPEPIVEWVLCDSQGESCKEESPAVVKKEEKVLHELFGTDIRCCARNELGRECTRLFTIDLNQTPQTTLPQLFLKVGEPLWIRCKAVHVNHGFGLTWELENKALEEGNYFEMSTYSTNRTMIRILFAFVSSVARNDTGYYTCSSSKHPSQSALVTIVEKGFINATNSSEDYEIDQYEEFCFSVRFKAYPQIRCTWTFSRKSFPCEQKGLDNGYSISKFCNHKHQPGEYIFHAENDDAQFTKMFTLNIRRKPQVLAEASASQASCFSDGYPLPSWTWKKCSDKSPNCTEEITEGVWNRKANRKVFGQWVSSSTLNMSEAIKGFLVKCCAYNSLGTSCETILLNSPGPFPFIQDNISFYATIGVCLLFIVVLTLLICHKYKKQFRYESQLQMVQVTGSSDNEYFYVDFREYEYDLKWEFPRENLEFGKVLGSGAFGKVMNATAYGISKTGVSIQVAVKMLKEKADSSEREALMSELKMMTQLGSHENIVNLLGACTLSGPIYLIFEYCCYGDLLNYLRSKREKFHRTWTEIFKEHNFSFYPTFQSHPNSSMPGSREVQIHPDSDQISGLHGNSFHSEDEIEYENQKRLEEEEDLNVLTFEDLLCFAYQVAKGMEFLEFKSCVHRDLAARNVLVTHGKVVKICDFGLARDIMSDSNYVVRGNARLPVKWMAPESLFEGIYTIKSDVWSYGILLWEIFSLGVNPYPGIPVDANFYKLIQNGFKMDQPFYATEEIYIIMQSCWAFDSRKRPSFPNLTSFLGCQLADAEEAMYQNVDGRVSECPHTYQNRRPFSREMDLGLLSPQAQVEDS
# [4] = biological target: T2, MAP/microtubule affinity-regulating kinase 4 (Homo sapiens, UniProt Q96L34)
# T2 sequence (Q96L34 whole entry): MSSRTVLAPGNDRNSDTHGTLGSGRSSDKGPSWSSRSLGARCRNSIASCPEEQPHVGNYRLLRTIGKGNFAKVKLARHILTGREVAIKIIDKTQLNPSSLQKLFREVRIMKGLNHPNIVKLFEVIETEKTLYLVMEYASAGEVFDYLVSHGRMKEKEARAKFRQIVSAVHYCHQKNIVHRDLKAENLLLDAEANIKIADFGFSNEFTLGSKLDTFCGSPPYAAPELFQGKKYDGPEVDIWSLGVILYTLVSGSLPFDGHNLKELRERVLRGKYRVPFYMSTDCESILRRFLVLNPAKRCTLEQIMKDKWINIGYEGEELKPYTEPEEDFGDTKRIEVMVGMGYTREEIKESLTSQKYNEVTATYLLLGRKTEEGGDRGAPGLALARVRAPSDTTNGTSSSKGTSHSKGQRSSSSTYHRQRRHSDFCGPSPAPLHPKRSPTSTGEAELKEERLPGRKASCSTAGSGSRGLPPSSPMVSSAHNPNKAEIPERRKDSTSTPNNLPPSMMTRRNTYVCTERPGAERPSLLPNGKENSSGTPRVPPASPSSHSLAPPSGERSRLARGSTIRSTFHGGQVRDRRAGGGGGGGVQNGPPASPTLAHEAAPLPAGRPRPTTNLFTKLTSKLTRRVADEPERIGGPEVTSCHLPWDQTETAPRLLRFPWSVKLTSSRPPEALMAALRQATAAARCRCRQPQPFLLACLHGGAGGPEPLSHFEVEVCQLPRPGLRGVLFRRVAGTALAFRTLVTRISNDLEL
# [5] = biological target: Mitogen-activated protein kinase 7 (Homo sapiens, UniProt Q13164)
# Sequence of Mitogen-activated protein kinase 7 (Q13164 whole entry): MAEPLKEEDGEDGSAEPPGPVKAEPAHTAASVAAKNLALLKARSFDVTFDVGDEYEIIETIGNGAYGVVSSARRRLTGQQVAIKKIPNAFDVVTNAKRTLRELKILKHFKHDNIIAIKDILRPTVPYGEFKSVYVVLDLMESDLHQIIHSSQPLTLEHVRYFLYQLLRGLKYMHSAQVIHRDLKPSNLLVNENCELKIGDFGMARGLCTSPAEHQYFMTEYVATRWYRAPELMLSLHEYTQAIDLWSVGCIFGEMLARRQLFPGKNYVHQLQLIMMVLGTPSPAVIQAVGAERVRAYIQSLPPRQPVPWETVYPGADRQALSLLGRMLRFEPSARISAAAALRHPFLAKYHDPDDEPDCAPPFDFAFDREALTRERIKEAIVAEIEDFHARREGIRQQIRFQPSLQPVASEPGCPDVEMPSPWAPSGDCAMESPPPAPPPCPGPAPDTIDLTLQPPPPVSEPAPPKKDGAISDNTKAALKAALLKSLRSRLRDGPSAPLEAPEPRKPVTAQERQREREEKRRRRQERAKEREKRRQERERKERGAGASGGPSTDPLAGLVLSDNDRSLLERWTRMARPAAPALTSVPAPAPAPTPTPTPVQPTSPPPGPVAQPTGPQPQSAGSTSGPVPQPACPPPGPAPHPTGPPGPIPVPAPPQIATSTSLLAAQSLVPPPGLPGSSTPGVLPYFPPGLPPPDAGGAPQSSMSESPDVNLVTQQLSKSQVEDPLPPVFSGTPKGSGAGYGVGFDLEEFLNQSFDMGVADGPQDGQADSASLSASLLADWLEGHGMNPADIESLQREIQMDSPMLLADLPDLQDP
# [6] = biological target: T3, MAP kinase-activated protein kinase 5 (Homo sapiens, UniProt Q8IW41)
# T3 sequence (Q8IW41 whole entry): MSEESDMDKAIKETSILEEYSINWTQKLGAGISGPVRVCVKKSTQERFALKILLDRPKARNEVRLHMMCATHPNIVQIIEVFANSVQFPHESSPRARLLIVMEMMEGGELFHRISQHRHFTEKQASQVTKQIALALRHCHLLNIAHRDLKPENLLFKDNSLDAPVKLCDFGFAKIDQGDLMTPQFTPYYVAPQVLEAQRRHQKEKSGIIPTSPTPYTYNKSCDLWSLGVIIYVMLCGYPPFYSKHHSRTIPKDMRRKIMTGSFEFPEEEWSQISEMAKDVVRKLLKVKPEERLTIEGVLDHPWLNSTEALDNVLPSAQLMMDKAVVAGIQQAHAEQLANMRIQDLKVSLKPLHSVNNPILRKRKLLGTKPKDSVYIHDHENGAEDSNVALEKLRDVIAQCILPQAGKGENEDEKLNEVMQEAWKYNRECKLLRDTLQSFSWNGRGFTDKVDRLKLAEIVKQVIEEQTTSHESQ
# [7] = biological target: T4, Signal recognition particle receptor subunit alpha (Homo sapiens, UniProt P08240)
# T4 sequence (P08240 whole entry): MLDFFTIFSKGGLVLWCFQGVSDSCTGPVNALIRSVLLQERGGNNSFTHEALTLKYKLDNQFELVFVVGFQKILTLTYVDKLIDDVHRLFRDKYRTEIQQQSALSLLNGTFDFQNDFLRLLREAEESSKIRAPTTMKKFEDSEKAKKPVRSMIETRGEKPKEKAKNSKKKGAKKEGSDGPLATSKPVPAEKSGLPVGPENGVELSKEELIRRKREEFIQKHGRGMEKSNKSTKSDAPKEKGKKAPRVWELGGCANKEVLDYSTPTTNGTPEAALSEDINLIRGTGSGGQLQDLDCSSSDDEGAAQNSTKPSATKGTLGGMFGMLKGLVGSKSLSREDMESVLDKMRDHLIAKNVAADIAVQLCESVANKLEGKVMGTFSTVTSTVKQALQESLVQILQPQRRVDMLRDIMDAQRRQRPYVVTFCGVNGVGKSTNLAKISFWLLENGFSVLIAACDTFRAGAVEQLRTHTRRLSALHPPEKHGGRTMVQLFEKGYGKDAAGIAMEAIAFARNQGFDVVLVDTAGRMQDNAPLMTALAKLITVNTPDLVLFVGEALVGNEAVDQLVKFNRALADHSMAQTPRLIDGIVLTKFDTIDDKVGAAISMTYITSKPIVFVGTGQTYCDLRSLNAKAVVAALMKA
Kd [1],Kd [2],Kd [3],Kd [4],Kd [5],Kd [6],Kd [7],SMILES
> 30 µM (inactive),> 30 µM (inactive),0.143 µM (active),> 30 µM (inactive),> 30 µM (inactive),> 30 µM (inactive),> 30 µM (inactive),CN1CCC(CNc2ccc3ncc(-c4cccc(OC(F)(F)F)c4)n3n2)CC1 [SGI-1776]
> 30 µM (inactive),> 30 µM (inactive),> 30 µM (inactive),> 30 µM (inactive),> 30 µM (inactive),> 30 µM (inactive),> 30 µM (inactive),Cc1c(F)cc(C(=O)NC2CC2)cc1-c1ccc(C(=O)NCC(C)(C)C)cn1 [LOSMAPIMOD]
> 30 µM (inactive),> 30 µM (inactive),> 30 µM (inactive),> 30 µM (inactive),> 30 µM (inactive),> 30 µM (inactive),> 30 µM (inactive),CC[C@@H]1C(=O)N(C)c2cnc(Nc3ccc(C(=O)N[C@H]4CC[C@H](N5CCN(CC6CC6)CC5)CC4)cc3OC)nc2N1C(C)C [VOLASERTIB]
> 30 µM (inactive),> 30 µM (inactive),> 30 µM (inactive),> 30 µM (inactive),> 30 µM (inactive),> 30 µM (inactive),> 30 µM (inactive),Cc1cc([C@@H](C)Nc2ccccc2C(=O)O)c2nc(N3CCOCC3)cc(=O)n2c1 [AZD-6482]
> 30 µM (inactive),> 30 µM (inactive),> 30 µM (inactive),> 30 µM (inactive),> 30 µM (inactive),> 30 µM (inactive),> 30 µM (inactive),CCn1c(=O)c(-c2cc[nH]n2)cc2c(C)nc(N)nc21 [VOXTALISIB]
> 30 µM (inactive),> 30 µM (inactive),> 30 µM (inactive),> 30 µM (inactive),> 30 µM (inactive),> 30 µM (inactive),> 30 µM (inactive),COc1ccc(-c2ccc3c(N4CCOC[C@@H]4C)nc(N4CCOC[C@@H]4C)nc3n2)cc1CO [AZD-8055]

SMILES,Kd [1],Kd [2],Kd [3],Kd [4],Kd [5],Kd [6],Kd [7]
Cc1ccc(-n2nc(C(C)(C)C)cc2NC(=O)NCc2cc(F)ccc2Oc2ccc3c(cnn3CCO)c2)cc1 [PEXMETINIB],> 30 µM (inactive),> 30 µM (inactive),> 30 µM (inactive),> 30 µM (inactive),> 30 µM (inactive),> 30 µM (inactive),> 30 µM (inactive)
